In patent US7528138B2, “Pyrazolo[1,5-a]pyrimidines useful as inhibitors of protein kinases” (Vertex Pharmaceuticals Incorporated, priority 2004, dated 2009):
pKi: −log10 of the molar value.

Tests used:
Assay type in all cases: biochemical
JAK3 = molecular target: T1, JAK3 (Homo sapiens, UniProt P52333); experiment: JAK3 Inhibition Assay, 33P incorporation; conditions: enzyme inhibition data (Ki), Table 11
T1 sequence (P52333 1-1124): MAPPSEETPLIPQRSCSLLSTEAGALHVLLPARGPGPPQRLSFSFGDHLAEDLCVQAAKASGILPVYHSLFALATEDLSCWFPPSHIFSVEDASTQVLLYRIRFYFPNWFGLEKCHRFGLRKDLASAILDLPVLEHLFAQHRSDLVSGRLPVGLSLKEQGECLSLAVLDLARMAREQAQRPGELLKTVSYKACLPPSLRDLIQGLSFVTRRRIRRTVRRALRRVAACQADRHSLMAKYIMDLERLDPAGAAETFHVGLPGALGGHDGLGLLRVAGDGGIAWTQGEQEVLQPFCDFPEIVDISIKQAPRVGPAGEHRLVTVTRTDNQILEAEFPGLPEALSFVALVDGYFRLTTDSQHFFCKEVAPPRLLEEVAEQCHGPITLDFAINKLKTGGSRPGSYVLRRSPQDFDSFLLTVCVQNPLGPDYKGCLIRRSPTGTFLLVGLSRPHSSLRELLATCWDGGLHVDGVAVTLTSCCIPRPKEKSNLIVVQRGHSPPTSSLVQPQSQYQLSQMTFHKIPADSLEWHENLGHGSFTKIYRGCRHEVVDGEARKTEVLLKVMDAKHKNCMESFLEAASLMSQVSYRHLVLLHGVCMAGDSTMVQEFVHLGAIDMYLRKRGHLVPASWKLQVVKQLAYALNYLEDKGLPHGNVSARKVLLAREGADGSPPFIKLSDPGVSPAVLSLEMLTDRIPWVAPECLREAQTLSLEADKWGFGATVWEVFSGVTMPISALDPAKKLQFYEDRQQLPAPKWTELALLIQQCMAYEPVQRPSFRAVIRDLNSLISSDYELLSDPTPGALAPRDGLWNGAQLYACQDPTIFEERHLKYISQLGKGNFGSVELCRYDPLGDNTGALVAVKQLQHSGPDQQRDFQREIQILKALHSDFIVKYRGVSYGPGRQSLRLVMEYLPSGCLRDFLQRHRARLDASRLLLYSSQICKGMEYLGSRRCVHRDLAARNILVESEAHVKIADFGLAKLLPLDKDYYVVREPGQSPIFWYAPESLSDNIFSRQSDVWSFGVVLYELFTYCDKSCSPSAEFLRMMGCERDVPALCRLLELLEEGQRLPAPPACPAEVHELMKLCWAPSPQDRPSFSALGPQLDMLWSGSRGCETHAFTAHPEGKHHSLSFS
Description: Reactions are carried out in a kinase buffer containing 100 mM HEPES (pH 7.4), 1 mM DTT, 10 mM MgCl2, 25 mM NaCl, and 0.01% BSA. Substrate concentrations in the assay are 5 μM ATP (200 uCi/μmole ATP) and 1 μM poly(Glu)4Tyr. Reactions are carried out at 25° C. and 1 nM JAK3. To each well of a 96 well polycarbonate plate is added 1.5 μl of a candidate JAK3 inhibitor along with 50 μl of kinase buffer containing 2 μM poly(Glu)4Tyr and 10 μM ATP. This is then mixed and 50 μl of kinase buffer containing 2 nM JAK3 enzyme is added to start the reaction. After 20 minutes at room temperature (25 C), the reaction is stopped with 50 μl of 20% trichloroacetic acid (TCA) that also contained 0.4 mM ATP. The entire contents of each well are then transferred to a 96 well glass fiber filter plate using a TomTek Cell Harvester. After washing, 60 μl of scintillation fluid is added and ^33P incorporation detected on a Perkin Elmer TopCount.

Itk = molecular target: T2, Itk (Homo sapiens, UniProt Q08881); experiment: ITK Inhibition Assay (Radiometric), radioactive-phosphate incorporation; conditions: enzyme inhibition data (Ki), Table 11; radiometric or UV assay not stated
T2 sequence (Q08881 1-620): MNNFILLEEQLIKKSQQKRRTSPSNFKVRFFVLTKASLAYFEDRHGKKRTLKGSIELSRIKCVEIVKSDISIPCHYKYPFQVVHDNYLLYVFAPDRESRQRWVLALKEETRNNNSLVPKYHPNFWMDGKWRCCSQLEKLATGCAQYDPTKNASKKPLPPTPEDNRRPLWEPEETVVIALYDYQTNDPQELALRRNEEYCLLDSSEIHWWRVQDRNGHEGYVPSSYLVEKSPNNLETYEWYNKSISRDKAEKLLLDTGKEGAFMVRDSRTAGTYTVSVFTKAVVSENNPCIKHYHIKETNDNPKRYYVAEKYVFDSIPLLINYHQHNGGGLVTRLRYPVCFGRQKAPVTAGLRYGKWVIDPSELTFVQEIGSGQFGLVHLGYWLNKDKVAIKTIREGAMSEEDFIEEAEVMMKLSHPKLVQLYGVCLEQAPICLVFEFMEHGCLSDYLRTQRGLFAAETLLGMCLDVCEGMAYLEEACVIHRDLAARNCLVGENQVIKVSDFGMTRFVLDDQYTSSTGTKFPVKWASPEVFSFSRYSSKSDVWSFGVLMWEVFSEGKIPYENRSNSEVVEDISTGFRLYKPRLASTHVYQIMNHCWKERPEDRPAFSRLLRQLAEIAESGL
Description: Assays are carried out in a mixture of 20 mM MOPS (pH 7.0), 10 mM MgCl2, 0.1% BSA and 1 mM DTT. Final substrate concentrations in the assay are 7.5 μM [γ-33P]ATP (400 mCi 33P ATP/mmol ATP, Amersham Pharmacia Biotech/Sigma Chemicals) and 3 μM peptide (SAM68 protein D332-443). Assays are carried out at 25° C. in the presence of 50 nM Itk. An assay stock buffer solution is prepared containing all of the reagents listed above, with the exception of ATP and the test compound of interest. 50 μL of the stock solution is placed in a 96 well plate followed by addition of 2 μL of DMSO stock containing serial dilutions of the test compound (typically starting from a final concentration of 50 μM with 2-fold serial dilutions) in duplicate (final DMSO concentration 2%). The plate is pre-incubated for 10 minutes at 25° C. and the reaction initiated by addition of 50 μL [γ-33P]ATP (final concentration 7.5 μM).
The reaction is stopped after 10 minutes by the addition of […] 0.2M phosphoric acid+0.01% TWEEN 20. A multiscreen phosphocellulose filter 96-well plate (Millipore, Cat no. MAPHN0B50) is pretreated with 100 μL 0.2M phosphoric acid +0.01% TWEEN 20 prior to the addition of […] of the stopped assay mixture. The plate is washed with 4×200 μL 0.2M phosphoric acid+0.01% TWEEN 20. After drying, 30 μL Optiphase ‘SuperMix’ liquid scintillation cocktail (Perkin Elmer) is added to the well prior to scintillation counting (1450 Microbeta Liquid Scintillation Counter, Wallac).
Ki(app) data are calculated from non-linear regression analysis of the initial rate data using the Prism software package (GraphPad Prism version 3.0cx for Macintosh, GraphPad Software, San Diego Calif., USA).

c-Met = c-Met (Homo sapiens, UniProt P08581); experiment: c-Met Inhibition Assay, coupled enzyme system; conditions: enzyme inhibition data (Ki), Table 11
Sequence of c-Met (P08581 25-1390): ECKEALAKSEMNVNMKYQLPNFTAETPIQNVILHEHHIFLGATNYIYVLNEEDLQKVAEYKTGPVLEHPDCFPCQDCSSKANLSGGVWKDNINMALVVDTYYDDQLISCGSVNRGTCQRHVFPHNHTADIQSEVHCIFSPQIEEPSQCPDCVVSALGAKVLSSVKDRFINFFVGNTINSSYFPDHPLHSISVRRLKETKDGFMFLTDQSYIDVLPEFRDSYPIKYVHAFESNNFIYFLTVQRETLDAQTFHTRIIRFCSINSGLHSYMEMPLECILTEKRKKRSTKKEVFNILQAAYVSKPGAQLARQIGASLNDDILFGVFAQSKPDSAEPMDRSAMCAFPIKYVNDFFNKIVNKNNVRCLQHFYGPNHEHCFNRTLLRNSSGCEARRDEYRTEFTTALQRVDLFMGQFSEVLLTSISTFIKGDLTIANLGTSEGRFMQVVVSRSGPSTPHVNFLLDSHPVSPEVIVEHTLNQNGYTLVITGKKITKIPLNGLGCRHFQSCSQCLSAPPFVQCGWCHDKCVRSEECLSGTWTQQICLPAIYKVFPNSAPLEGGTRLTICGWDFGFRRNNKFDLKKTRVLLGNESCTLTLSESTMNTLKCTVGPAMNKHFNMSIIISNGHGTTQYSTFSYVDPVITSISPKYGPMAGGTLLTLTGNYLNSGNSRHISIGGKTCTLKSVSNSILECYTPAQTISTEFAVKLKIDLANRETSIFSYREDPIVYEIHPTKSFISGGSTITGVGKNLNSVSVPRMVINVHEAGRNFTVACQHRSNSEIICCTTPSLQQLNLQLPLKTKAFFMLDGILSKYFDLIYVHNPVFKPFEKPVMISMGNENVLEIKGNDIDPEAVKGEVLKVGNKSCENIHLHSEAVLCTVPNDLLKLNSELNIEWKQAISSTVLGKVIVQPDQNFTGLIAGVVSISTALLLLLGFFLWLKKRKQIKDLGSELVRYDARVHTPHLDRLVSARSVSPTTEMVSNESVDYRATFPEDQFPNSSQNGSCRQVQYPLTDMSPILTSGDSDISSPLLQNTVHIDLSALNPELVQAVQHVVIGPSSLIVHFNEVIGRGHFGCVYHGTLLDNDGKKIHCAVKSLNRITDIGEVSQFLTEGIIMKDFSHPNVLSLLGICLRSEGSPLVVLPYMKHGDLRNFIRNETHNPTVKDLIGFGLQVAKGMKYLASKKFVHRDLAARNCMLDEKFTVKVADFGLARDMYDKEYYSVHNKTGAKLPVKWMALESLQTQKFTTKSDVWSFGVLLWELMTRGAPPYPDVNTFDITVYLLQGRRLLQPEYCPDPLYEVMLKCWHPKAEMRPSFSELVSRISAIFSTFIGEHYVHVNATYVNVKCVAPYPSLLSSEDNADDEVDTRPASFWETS
Description: Compounds are screened for their ability to inhibit c-Met kinase activity using a standard coupled enzyme system (Fox et al., Protein Sci. 1998, 7, 2249). Reactions are carried out in a solution containing 100 mM HEPES (pH 7.5), 10 mM MgCl2, 25 mM NaCl, 300 μM NADH, 1 mM DTT, and 1.5% DMSO. Final substrate concentrations in the assay are 200 μM ATP (Sigma Chemicals, St Louis, Mo.) and 10 μM polyGluTyr (Sigma Chemical Company, St. Louis). Reactions are carried out at 30° C. and 80 nM c-Met. Final concentrations of the components of the coupled enzyme system are 2.5 mM phosphoenolpyruvate, 300 μM NADH, 30 μg/ml pyruvate kinase and 10 μg/ml lactate dehydrogenase.
An assay stock buffer solution is prepared containing all of the reagents listed above with the exception of ATP and a test compound of the present invention. The assay stock buffer solution (175 μl) is incubated in a 96 well plate with 5 μl of the test compound of the present invention at final concentrations spanning 0.006 μM to 12.5 μM at 30° C. for 10 minutes. Typically, a 12-point titration is conducted by preparing serial dilutions (from 10 mM compound stocks) with DMSO of the test compounds of the present invention in daughter plates. The reaction is initiated by the addition of 20 μl of ATP (final concentration 200 μM). Rates of reaction are obtained using a Molecular Devices Spectramax plate reader (Sunnyvale, Calif.) over 10 minutes at 30° C. The Ki values are determined from the rate data as a function of inhibitor concentration.

Structure (SMILES)	pKi (JAK3)	pKi (Itk)	pKi (c-Met)
Nc1nn2cc(/C=C/c3ccccc3)cnc2c1-c1ccccn1 [Compound V-209]	< 5.30	> 6.30	5.30 to 6.30
Nc1nn2cc(-c3ccnc(N4CCC(N5CCCC5)CC4)c3)cnc2c1-c1ccccn1 [Compound V-256]	< 5.30	5.30 to 6.30	5.30 to 6.30
Nc1nn2cc(N3CCC[C@@H]3CN3CCCC3)cnc2c1-c1ccccn1 [Compound V-272]	< 5.30	5.30 to 6.30	5.30 to 6.30
Cc1cnc2c(-c3cc(N[C@H](C)C4CCCCC4)ncn3)c(N)nn2c1 [Compound V-297]	5.30 to 6.30	5.30 to 6.30	> 6.30
C[C@@H](CO)NCCCc1cnc2c(-c3ccccn3)c(N)nn2c1 [Compound V-326]	< 5.30	5.30 to 6.30	5.30 to 6.30
CCN(CC)CCCc1cnc2c(-c3ccccn3)c(N)nn2c1 [Compound V-319]	< 5.30	5.30 to 6.30	> 6.30
CN1CCCN(c2cc(-c3cnc4c(-c5ccccn5)c(N)nn4c3)ccn2)CC1 [Compound V-254]	< 5.30	5.30 to 6.30	5.30 to 6.30
CC(C)CNC(=O)c1cnc2c(-c3ccccn3)c(N)nn2c1 [Compound V-205]	< 5.30	5.30 to 6.30	5.30 to 6.30
CN(C)c1ccc(CNC(=O)c2c(N)nn3cc(-c4ccncn4)cnc23)cc1 [Compound V-43]	< 5.30	5.30 to 6.30	5.30 to 6.30
Nc1nn2cc(-c3ccncn3)cnc2c1C(=O)N1CCC[C@H]1CN1CCCC1 [Compound V-34]	< 5.30	5.30 to 6.30	5.30 to 6.30
CCN(Cc1ccccc1)C(=O)c1c(N)nn2cc(-c3ccncn3)cnc12 [Compound V-42]	< 5.30	5.30 to 6.30	5.30 to 6.30
COC[C@H](C)Nc1cc(-c2c(N)nn3cc(C)cnc23)ncn1 [Compound V-292]	5.30 to 6.30	5.30 to 6.30	> 6.30
Nc1nn2cc(-c3ccncn3)cnc2c1C(=O)N1CCC[C@H]1CO [Compound V-39]	< 5.30	5.30 to 6.30	5.30 to 6.30
Nc1nn2cc(-c3ccncn3)cnc2c1C(=O)N[C@H](CO)c1ccccc1 [Compound V-46]	< 5.30	5.30 to 6.30	5.30 to 6.30
CN(Cc1ccccc1)C(=O)c1c(N)nn2cc(-c3ccncn3)cnc12 [Compound V-41]	< 5.30	5.30 to 6.30	5.30 to 6.30
Nc1nn2cc(-c3ccccc3[N+](=O)[O-])cnc2c1-c1ccccn1 [Compound V-21]	< 5.30	5.30 to 6.30	5.30 to 6.30
CN(C)Cc1ccccc1-c1cnc2c(-c3ccccn3)c(N)nn2c1 [Compound V-23]	< 5.30	5.30 to 6.30	5.30 to 6.30
COc1ccc(-c2cnc3c(-c4ccccc4)c(N)nn3c2)cc1 [Compound V-186]	< 5.30	> 6.30	5.30 to 6.30
Nc1nn2cc(-c3ccc(N4CCN(c5cnccn5)CC4)nc3)cnc2c1-c1ccccn1 [Compound V-162]	< 5.30	5.30 to 6.30	5.30 to 6.30
Nc1nn2cc(-c3ccncn3)cnc2c1C(=O)O [Compound V-28]	< 5.30	5.30 to 6.30	5.30 to 6.30
Cc1cnc2c(-c3cc(N4CCCC(O)C4)ncn3)c(N)nn2c1 (stereo not drawn) [Compound V-342]	5.30 to 6.30	5.30 to 6.30	> 6.30
CN(C)CCNc1cc(-c2cnc3c(-c4ccccn4)c(N)nn3c2)ccn1 [Compound V-246]	< 5.30	5.30 to 6.30	> 6.30
Cc1cnc2c(-c3cc(NC4CCN(C)CC4)ncn3)c(N)nn2c1 [Compound V-284]	5.30 to 6.30	5.30 to 6.30	> 6.30
Nc1nn2cc(-c3ccccc3F)cnc2c1-c1ccccn1 [Compound V-13]	< 5.30	5.30 to 6.30	5.30 to 6.30
Nc1nn2cc(-c3cccnc3N3CCOCC3)cnc2c1-c1ccccn1 [Compound V-257]	< 5.30	5.30 to 6.30	5.30 to 6.30
Nc1nn2cc(-c3cccc(C(=O)N4CCCC(O)C4)n3)cnc2c1-c1ccccn1 (stereo not drawn) [Compound V-140]	< 5.30	5.30 to 6.30	> 6.30
